Common to all, as to assay: selectivity profiling in a panel of 340 wild-type kinases (Reaction Biology Europe)
Format in all cases: binding

Assay [1] addresses T1, 340 wild-type kinases (Homo sapiens, UniProt O60285).
T1 construct: purchased Reaction Biology Europe
T1 sequence (O60285 1-661): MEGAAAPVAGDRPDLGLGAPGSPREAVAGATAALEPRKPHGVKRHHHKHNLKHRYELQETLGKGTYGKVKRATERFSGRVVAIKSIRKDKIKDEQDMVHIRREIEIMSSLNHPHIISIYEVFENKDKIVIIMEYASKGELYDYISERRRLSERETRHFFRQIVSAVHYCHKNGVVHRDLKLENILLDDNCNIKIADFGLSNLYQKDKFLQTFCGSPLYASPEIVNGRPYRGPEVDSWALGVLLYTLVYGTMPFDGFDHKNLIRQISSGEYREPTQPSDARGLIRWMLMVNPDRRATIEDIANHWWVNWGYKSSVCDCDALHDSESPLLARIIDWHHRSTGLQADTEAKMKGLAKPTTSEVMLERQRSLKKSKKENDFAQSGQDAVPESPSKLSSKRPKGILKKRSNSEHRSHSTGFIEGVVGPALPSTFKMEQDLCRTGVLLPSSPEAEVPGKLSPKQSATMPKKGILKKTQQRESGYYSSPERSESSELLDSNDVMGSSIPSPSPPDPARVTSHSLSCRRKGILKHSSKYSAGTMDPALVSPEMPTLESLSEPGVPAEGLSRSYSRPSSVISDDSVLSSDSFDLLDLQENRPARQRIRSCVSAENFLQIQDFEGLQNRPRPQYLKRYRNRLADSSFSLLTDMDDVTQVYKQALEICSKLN

In assay [2] the target is T2, 340 wild-type kinases (Homo sapiens, UniProt Q8NE63).
T2 construct: purchased Reaction Biology Europe
T2 sequence (Q8NE63 1-616): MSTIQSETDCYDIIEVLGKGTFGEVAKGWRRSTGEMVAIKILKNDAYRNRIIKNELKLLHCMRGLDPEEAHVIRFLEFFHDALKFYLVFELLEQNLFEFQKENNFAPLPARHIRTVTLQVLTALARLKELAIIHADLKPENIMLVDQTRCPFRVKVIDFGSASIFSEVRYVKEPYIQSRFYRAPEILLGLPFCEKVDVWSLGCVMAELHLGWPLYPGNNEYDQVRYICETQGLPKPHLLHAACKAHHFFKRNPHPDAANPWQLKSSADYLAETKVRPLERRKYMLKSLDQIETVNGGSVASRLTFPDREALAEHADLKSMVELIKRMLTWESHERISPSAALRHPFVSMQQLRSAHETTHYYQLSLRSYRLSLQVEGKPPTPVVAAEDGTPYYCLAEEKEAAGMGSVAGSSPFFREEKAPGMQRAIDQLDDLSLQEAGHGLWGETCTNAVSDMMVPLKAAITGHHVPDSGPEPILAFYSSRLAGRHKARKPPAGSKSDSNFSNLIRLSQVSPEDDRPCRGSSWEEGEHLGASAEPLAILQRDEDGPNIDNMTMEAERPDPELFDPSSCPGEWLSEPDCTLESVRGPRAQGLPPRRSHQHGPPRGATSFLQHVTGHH

Assay [3] deals with T3, 340 wild-type kinases (Homo sapiens, UniProt P29322).
T3 construct: purchased Reaction Biology Europe
T3 sequence (P29322 28-1005): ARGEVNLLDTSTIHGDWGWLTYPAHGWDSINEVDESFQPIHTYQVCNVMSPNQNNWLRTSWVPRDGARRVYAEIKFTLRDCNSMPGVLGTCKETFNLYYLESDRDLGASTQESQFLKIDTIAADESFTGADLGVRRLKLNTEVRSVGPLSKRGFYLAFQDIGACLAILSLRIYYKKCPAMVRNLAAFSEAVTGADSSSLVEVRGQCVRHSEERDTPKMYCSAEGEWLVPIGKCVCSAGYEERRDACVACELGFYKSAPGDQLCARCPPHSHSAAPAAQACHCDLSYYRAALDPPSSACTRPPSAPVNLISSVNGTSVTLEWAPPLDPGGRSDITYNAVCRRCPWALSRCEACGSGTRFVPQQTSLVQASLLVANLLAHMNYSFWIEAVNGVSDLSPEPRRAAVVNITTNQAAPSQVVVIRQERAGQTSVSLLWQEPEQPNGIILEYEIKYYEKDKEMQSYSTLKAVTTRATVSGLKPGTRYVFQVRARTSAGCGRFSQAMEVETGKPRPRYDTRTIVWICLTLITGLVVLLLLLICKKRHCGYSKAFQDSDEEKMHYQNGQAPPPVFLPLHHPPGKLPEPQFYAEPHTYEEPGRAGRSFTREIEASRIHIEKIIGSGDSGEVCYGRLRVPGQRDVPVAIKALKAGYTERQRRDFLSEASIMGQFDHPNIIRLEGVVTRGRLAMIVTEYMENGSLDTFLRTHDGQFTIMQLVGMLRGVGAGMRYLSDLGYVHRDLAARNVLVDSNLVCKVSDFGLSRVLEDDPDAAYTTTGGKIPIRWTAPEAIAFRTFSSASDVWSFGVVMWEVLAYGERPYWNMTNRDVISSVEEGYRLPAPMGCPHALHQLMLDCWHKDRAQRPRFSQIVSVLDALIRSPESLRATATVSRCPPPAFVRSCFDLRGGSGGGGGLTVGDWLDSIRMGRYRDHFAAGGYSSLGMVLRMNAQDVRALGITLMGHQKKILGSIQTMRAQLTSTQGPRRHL

Assay [4] addresses T4, 340 wild-type kinases (Homo sapiens, UniProt P19525).
T4 construct: purchased Reaction Biology Europe

Assay [5] concerns the target T5, 340 wild-type kinases (Homo sapiens, UniProt O60566).
T5 construct: purchased Reaction Biology Europe

The target of assay [6] is T6, 340 wild-type kinases (Homo sapiens, UniProt P10721).
T6 construct: purchased Reaction Biology Europe
T6 sequence (P10721 26-976): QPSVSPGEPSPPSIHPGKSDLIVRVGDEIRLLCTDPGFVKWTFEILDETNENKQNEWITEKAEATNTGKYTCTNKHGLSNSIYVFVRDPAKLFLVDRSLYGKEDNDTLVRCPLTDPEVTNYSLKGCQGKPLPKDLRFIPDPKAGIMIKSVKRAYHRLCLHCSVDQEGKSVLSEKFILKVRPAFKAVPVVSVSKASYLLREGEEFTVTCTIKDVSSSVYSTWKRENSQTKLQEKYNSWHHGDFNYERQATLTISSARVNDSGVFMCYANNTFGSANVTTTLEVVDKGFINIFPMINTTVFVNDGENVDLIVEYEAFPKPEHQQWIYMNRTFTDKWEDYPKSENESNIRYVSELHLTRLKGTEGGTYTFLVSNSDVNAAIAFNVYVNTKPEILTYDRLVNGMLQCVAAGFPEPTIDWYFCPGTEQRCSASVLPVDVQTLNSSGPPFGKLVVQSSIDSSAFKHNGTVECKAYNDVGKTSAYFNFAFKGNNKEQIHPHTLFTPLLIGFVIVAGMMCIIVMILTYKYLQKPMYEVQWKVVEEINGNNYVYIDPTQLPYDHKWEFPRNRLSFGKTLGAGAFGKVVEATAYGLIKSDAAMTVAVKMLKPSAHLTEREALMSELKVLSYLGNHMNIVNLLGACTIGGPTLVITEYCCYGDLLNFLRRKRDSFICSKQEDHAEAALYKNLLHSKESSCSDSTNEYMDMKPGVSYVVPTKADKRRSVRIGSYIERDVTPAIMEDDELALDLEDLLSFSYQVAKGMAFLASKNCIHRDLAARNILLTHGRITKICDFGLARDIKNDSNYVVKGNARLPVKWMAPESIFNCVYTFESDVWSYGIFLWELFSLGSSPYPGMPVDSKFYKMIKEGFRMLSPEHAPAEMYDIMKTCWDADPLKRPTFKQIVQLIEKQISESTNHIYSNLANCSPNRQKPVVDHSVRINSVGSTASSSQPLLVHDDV

Each structure is given as a SMILES string. Read-outs that look alike come from different tables or passages of the source.

T4 sequence (P19525 whole entry): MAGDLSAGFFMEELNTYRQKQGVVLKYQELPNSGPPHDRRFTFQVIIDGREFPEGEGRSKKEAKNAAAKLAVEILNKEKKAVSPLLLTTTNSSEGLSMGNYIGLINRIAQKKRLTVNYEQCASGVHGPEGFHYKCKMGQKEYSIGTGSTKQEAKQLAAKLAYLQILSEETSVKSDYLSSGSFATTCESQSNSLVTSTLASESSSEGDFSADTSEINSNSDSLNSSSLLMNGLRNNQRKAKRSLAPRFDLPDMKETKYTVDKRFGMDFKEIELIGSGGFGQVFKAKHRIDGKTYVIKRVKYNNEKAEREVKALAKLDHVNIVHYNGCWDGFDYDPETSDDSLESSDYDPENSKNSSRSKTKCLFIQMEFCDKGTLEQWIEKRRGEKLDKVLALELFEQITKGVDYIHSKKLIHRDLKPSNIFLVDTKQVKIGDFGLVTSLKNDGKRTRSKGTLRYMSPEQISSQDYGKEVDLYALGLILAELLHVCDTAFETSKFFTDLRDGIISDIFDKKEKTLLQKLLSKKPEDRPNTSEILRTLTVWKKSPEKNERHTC
T5 sequence (O60566 whole entry): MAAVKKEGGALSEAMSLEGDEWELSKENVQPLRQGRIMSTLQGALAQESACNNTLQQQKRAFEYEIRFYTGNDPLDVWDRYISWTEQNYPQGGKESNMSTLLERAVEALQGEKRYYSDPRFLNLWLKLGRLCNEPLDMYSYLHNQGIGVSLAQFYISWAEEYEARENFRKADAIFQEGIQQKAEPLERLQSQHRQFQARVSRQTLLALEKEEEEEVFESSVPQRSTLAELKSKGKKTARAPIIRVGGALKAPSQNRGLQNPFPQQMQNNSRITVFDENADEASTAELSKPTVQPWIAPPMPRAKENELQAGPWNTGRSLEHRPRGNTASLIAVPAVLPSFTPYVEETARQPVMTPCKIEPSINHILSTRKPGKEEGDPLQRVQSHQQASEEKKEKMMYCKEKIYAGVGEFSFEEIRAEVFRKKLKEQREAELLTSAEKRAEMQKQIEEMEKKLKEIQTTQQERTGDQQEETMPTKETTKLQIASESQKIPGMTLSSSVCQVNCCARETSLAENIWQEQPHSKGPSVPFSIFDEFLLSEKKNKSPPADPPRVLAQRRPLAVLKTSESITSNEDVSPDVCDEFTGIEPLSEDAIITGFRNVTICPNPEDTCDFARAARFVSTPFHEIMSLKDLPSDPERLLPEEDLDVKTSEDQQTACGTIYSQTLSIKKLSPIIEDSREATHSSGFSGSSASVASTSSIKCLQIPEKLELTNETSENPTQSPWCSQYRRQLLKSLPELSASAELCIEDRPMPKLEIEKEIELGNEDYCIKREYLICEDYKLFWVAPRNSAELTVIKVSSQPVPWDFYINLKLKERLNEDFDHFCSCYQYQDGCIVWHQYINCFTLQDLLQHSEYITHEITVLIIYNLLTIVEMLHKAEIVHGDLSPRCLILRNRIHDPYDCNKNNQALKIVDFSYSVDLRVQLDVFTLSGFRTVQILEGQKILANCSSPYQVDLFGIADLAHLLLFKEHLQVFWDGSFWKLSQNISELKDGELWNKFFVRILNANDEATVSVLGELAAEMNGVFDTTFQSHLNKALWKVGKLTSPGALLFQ

For `CNC(=O)c1ccc2c(c1)C(=O)c1ccc(Nc3ccc(F)c(NC(=O)C4CC4)c3)cc1CC2` [Compound 2015], the remaining activity at 0.2 µM in assay [1] (0.2 µM 2015, read-out: ARK5 residual activity) was determined as 96.7%; in assay [1] (ARK5, 0.2 µM, read-out: residual activity) it was 96.7%; in assay [2] (0.2 µM 2015, read-out: HIPK4 residual activity), 96.4%; in assay [2] (HIPK4, 0.2 µM, read-out: residual activity), 96.4%; in assay [3] (0.2 µM 2015, read-out: EPHA8 residual activity) it was 98.5%; in assay [3] (EPHA8, 0.2 µM, read-out: residual activity) it was 98.5%. Besides, the remaining activity at 0.2 µM was found to be 84.5% in assay [4] (0.2 µM 2015, read-out: EIF2AK2 residual activity); 84.5% in assay [4] (EIF2AK2, 0.2 µM, read-out: residual activity); 94.1% in assay [5] (0.2 µM 2015, read-out: BUB1B residual activity); 94.1% in assay [5] (BUB1B, 0.2 µM, read-out: residual activity); 114% in assay [6] (0.2 µM 2015, read-out: KIT residual activity); 114% in assay [6] (KIT, 0.2 µM, read-out: residual activity). Also, the remaining activity at 1 µM in assay [1] (1 µM 2015, read-out: ARK5 residual activity) turned out to be 98.5%; in assay [1] (ARK5, 1 µM, read-out: residual activity), 98.5%; in assay [2] (1 µM 2015, read-out: HIPK4 residual activity) it was 95.4%; in assay [2] (HIPK4, 1 µM, read-out: residual activity), 95.5%; in assay [3] (1 µM 2015, read-out: EPHA8 residual activity), 95.3%; in assay [3] (EPHA8, 1 µM, read-out: residual activity), 95.3%. The remaining activity at 1 µM amounted to 85.2% in assay [4] (1 µM 2015, read-out: EIF2AK2 residual activity); 85.2% in assay [4] (EIF2AK2, 1 µM, read-out: residual activity); 95.8% in assay [5] (1 µM 2015, read-out: BUB1B residual activity); 95.8% in assay [5] (BUB1B, 1 µM, read-out: residual activity); 109% in assay [6] (1 µM 2015, read-out: KIT residual activity); 109% in assay [6] (KIT, 1 µM, read-out: residual activity).

Source of the values: article PMC11864979, “First-in-class ultralong-target-residence-time p38α inhibitors as a mitosis-targeted therapy for colorectal cancer” (Nature Cancer, 2025).
